Experimental findings from patent US9388179B2, “N-substituted indazole sulfonamide compounds with selective activity in voltage-gated sodium channels” (Merck Sharp & Dohme Corp., priority 2012, dated 2016) are described below.

Experiment [1] has as its target T1, human Nav1.5 channels stably expressed in HEK 293 cells (Homo sapiens, UniProt Q14524).
T1 construct: expressed in transfected cells; host or cells: HEK 293
Put plainly: PatchXpress 7000 automated patch-clamp, inactivated state block. To be noted: PatchXpress technique. It counts as cell-based. The method, then: (§1) For all electrophysiology experiments, offline analysis was used to correct for current rundown and to determine percent inhibition as a function of drug concentration. IC50 values were determined by fitting to the Hill equation.
(§2) Sodium Current Measurements on the PatchXpress 7000®:
(§3) To measure inactivated state block of sodium channels, test compounds were characterized in an automated PatchXpress® assay (Molecular Devices) using a double-pulse protocol on human Nav1.7 and Nav1.5 channels stably expressed in HEK 293 cells. Cells were held at a potential 20 mV negative to V0.5 inact. An 8000 ms pre-pulse 7 mV positive to V0.5 inact was given followed by a hyperpolarizing 2 ms pulse to −120 mV and a 20 ms test pulse to −20 mV. Protocol was applied to cells in the absence, presence of compound and after washout. The temperature of PatchXpress instruments was maintained at 22° C. The following recording solutions were used. Internal solution (mM): 30 CsCl, 5 HEPES, 10 EGTA, 120 CsF, 5 NaF, 2 MgCl2. External solution (mM): 120 NMDG, 40 NaCl, 1 KCl, 0.5 MgCl2, 5 HEPES, 2.7 CaCl2.

In experiment [2] the target is T2, human Nav1.7 channels stably expressed in HEK 293 cells (Homo sapiens, UniProt Q15858).
T2 construct: expressed in transfected cells; host or cells: HEK 293
Described as above. It counts as cell-based. To be noted: PatchXpress technique; read-out: Nav 1.7 potency. The method, then: as §1, §2, §3

T2 sequence (Q15858 whole entry): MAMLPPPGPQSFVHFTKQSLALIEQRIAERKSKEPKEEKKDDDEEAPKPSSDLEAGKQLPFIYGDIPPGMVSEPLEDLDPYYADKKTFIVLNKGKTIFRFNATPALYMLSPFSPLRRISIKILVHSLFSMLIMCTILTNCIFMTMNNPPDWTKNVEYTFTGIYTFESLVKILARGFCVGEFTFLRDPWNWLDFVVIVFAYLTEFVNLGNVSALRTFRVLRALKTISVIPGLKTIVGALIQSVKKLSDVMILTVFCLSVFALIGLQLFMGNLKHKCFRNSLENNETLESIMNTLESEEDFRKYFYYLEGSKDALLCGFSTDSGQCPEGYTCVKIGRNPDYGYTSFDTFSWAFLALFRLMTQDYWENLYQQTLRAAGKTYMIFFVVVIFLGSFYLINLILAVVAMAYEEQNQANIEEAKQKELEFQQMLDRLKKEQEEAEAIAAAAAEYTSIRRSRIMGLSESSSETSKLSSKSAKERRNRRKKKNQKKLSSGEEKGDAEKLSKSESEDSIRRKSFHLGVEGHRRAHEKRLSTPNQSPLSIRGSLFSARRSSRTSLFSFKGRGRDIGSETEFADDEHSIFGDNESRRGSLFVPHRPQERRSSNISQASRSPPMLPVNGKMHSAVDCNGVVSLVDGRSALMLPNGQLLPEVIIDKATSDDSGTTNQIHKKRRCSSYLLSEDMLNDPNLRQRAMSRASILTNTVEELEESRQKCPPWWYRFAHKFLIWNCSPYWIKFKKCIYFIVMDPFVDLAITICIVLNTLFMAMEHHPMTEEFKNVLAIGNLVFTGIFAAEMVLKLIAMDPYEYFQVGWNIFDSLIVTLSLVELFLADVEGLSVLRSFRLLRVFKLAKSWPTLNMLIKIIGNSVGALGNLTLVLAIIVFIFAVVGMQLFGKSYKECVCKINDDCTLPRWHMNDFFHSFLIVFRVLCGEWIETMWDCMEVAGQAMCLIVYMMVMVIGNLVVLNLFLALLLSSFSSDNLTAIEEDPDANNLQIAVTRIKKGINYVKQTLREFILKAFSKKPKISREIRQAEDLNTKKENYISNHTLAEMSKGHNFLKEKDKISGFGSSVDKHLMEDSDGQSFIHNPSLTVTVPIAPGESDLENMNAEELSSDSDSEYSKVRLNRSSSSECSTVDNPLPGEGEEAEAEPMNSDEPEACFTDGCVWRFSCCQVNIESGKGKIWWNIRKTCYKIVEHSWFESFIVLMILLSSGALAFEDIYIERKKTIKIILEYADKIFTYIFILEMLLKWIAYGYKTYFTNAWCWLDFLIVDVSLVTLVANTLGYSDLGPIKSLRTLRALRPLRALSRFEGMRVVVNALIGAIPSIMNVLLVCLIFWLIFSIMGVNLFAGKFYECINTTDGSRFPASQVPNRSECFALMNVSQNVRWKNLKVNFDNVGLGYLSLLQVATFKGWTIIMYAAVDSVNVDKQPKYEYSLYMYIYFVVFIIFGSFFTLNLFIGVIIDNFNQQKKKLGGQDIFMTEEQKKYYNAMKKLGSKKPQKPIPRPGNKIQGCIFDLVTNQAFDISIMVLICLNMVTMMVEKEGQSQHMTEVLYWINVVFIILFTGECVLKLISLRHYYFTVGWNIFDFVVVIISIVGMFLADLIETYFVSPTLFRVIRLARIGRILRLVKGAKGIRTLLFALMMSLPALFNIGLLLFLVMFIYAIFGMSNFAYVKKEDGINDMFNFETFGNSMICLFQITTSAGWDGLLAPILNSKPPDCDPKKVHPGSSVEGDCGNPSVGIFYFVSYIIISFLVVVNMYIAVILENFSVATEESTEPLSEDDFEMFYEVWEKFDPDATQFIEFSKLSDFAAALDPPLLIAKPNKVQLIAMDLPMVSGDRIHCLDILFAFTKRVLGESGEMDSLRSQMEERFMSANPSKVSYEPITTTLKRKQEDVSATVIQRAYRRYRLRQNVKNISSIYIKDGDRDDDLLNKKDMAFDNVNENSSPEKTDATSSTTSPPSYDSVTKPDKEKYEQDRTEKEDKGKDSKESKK
T1 sequence (Q14524 whole entry): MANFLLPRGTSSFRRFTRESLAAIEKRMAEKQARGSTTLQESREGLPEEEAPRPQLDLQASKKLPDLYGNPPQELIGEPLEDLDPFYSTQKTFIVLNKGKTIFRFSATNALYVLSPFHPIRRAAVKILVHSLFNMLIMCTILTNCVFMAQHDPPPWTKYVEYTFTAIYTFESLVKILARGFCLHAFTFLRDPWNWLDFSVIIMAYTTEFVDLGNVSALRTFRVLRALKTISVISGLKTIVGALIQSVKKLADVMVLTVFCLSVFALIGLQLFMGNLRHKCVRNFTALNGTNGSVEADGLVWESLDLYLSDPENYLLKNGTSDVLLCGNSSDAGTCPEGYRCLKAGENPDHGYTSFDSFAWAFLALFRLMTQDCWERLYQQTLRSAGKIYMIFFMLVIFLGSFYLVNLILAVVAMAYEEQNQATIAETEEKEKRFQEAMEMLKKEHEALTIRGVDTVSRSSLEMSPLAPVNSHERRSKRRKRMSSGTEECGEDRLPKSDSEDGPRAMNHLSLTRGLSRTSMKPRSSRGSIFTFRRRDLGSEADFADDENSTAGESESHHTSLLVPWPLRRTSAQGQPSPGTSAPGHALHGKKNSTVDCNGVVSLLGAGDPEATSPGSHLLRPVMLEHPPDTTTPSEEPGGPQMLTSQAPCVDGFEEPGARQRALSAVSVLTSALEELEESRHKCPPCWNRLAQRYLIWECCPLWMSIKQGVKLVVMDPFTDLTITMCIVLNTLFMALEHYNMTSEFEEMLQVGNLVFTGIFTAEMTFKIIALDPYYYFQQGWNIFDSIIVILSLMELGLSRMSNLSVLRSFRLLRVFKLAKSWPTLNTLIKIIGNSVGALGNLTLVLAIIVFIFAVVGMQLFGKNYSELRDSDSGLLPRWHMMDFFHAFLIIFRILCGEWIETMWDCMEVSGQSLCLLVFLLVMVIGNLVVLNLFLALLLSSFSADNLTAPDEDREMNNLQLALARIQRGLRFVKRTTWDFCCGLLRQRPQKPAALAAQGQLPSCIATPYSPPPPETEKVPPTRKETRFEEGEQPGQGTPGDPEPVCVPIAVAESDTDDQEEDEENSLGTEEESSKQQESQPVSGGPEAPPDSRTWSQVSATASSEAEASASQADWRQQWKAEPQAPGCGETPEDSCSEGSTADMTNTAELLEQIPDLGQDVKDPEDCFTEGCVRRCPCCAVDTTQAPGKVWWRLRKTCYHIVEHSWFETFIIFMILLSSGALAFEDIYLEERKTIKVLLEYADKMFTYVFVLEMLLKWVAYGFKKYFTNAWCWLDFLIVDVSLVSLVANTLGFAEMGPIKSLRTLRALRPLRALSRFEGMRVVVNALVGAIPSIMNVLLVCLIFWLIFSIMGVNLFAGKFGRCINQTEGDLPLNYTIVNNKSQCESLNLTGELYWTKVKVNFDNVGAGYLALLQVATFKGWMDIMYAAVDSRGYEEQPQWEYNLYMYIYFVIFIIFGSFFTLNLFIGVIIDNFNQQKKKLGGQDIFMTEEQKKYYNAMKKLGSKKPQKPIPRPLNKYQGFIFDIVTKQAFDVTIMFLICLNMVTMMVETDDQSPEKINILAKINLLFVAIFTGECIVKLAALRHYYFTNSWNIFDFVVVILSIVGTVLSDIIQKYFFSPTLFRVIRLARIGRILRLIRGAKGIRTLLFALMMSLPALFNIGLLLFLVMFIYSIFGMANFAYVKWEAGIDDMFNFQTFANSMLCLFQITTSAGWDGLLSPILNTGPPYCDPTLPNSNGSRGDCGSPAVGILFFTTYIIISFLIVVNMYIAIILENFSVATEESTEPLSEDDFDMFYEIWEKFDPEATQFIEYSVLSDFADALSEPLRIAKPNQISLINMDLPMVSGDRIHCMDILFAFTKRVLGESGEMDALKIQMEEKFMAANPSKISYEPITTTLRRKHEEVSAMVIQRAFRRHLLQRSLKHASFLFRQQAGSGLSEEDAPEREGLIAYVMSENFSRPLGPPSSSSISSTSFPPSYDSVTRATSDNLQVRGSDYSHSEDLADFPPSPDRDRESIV

Turning to `C[C@H](c1ccccc1C#CCN)n1ncc2cc(S(=O)(=O)Nc3cccc(F)n3)c(F)cc21` [Ex-46, 1-{(1R)-1-[2-(3-aminoprop-1-yn-1-yl)phenyl]ethyl}-6-fluoro-N-(6-fluoropyridin-2-yl)-1H-indazole-5-sulfonamide], the “Ratio 1.5:1.7 = Nav 1.5 potency (nM)/Nav1.7 potency (nM)” value (shortened to “Ratio 1.5:1.7 = Nav 1.5 potency”) in experiment [1] is recorded as 41. Further, the IC50 in experiment [2] came out at 0.423 µM.

Consider `C[C@H](c1cccc2c1CNCC2)n1ncc2cc(S(=O)(=O)Nc3cccc(F)n3)c(F)cc21` [Ex-37, 6-fluoro-N-(6-fluoropyridin-2-yl)-1-[(1R)-1-(1,2,3,4-tetrahydroisoquinolin-8-yl)ethyl]-1H-indazole-5-sulfonamide], for which the “Ratio 1.5:1.7 = Nav 1.5 potency” value in experiment [1] worked out at 64. For the same molecule, in experiment [2], the IC50 was 0.372 µM.

For the molecule `NCC#Cc1ccccc1Cn1ncc2cc(S(=O)(=O)Nc3cccc(F)n3)c(F)cc21` [Ex-44, 1-[2-(3-aminoprop-1-yn-1-yl)benzyl]-6-fluoro-N-(6-fluoropyridin-2-yl)-1H-indazole-5-sulfonamide], the “Ratio 1.5:1.7 = Nav 1.5 potency” value in experiment [1] was found to be 10. The IC50 in experiment [2] stood at 2.53 µM.

Regarding `NCC#Cc1ccccc1Cn1ncc2cc(S(=O)(=O)Nc3nccs3)c(F)cc21` [Ex-29, 1-[2-(3-aminoprop-1-yn-1-yl)benzyl]-6-fluoro-N-1,3-thiazol-2-yl-1H-indazole-5-sulfonamide], the “Ratio 1.5:1.7 = Nav 1.5 potency” value in experiment [1] is 302. In addition, in experiment [2], the IC50 was 0.089 µM.

On to `C[C@H](c1ccccc1C1CCNCC1)n1ncc2cc(S(=O)(=O)Nc3cccc(F)n3)c(F)cc21` [Ex-43, 6-fluoro-N-(6-fluoropyridin-2-yl)-1-[(1R)-1-(2-piperidin-4-ylphenyl)ethyl]-1H-indazole-5-sulfonamide], for which, in experiment [1], the “Ratio 1.5:1.7 = Nav 1.5 potency” value is 16. Also, the IC50 in experiment [2] turned out to be 0.584 µM.

Take `Cc1cc2c(cnn2[C@H](C)c2cccc3c2CNCC3)cc1S(=O)(=O)Nc1cccc(F)n1` [Ex-60, N-(6-fluoropyridin-2-yl)-6-methyl-1-[(1R)-1-(1,2,3,4-tetrahydroisoquinolin-8-yl)ethyl]-1H-indazole-5-sulfonamide]: the “Ratio 1.5:1.7 = Nav 1.5 potency” value in experiment [1] is on record as 457. In addition, the IC50 in experiment [2] came out at 0.058 µM.

As for `NCc1ccccc1Cn1ncc2cc(S(=O)(=O)Nc3cccc(F)n3)c(F)cc21` [Ex-35, 1-[2-(aminomethyl)benzyl]-6-fluoro-N-(6-fluoropyridin-2-yl)-1H-indazole-5-sulfonamide], the “Ratio 1.5:1.7 = Nav 1.5 potency” value in experiment [1] is recorded as 53. In addition, in experiment [2], the IC50 was 0.568 µM.

On to `O=S(=O)(Nc1cccc(F)n1)c1cc2cnn(Cc3cccc4c3CNCC4F)c2cc1F` (centres unmarked) [Ex-49, 6-fluoro-N-(6-fluoropyridin-2-yl)-1-[(4-fluoro-1,2,3,4-tetrahydro-isoquinolin-8-yl)methyl]-1H-indazole-5-sulfonamide], for which, in experiment [1], the “Ratio 1.5:1.7 = Nav 1.5 potency” value is given as 45. In addition, in experiment [2], the IC50 was 0.661 µM.

With `O=S(=O)(Nc1cccc(F)n1)c1cc2cnn(Cc3cccc4c3CNC4)c2cc1F` [Ex-42, 1-(2,3-dihydro-1H-isoindol-4-ylmethyl)-6-fluoro-N-(6-fluoropyridin-2-yl)-1H-indazole-5-sulfonamide], the “Ratio 1.5:1.7 = Nav 1.5 potency” value in experiment [1] came to 36. The IC50 in experiment [2] is 0.825 µM.

For `C[C@H](c1ccccc1C#C[C@H]1CCCC[C@H]1N)n1ncc2cc(S(=O)(=O)Nc3cccc(F)n3)c(F)cc21` [Ex-50, 1-[(1R)-1-(2-{[(1R,2R)-2-amino-cyclohexyl]ethynyl}phenyl)ethyl]-6-fluoro-N-(6-fluoropyridin-2-yl)-1H-indazole-5-sulfonamide], the “Ratio 1.5:1.7 = Nav 1.5 potency” value in experiment [1] is 17. Further, in experiment [2], the IC50 is 0.689 µM.

Turning to `NCCCc1ccccc1Cn1ncc2cc(S(=O)(=O)Nc3cccc(F)n3)c(F)cc21` [Ex-32, 1-[2-(3-amino-propyl)benzyl]-6-fluoro-N-(6-fluoropyridin-2-yl)-1H-indazole-5-sulfonamide], in experiment [1], the “Ratio 1.5:1.7 = Nav 1.5 potency” value stood at 50. The IC50 in experiment [2] worked out at 0.064 µM.

In the case of `Cc1cc2c(cnn2Cc2cccc3c2CC(N)CC3)cc1S(=O)(=O)Nc1nccs1` (centres unmarked) [Ex-62, 1-[(7-amino-5,6,7,8-tetrahydronaphthalen-1-yl)methyl]-6-methyl-N-1,3-thiazol-2-yl-1H-indazole-5-sulfonamide], the “Ratio 1.5:1.7 = Nav 1.5 potency” value in experiment [1] stood at 762. In addition, the IC50 in experiment [2] amounted to 0.023 µM.

On to `C[C@H](c1ccccc1C1=CCNCC1)n1ncc2cc(S(=O)(=O)Nc3cccc(F)n3)c(F)cc21` [Ex-48, 6-fluoro-N-(6-fluoropyridin-2-yl)-1-{(1R)-1-[2-(1,2,3,6-tetrahydropyridin-4-yl)phenyl]ethyl}-1H-indazole-5-sulfonamide], for which, in experiment [1], the “Ratio 1.5:1.7 = Nav 1.5 potency” value is listed as 5. The IC50 in experiment [2] was 1.12 µM.

For `NC1CCc2cccc(Cn3ncc4cc(S(=O)(=O)Nc5nccs5)c(F)cc43)c2C1` (single isomer, unassigned) [Ex-26, (R or S)-1-[(7-amino-5,6,7,8-tetrahydronaphthalen-1-yl)methyl]-6-fluoro-N-1,3-thiazol-2-yl-1H-indazole-5-sulfonamide], the “Ratio 1.5:1.7 = Nav 1.5 potency” value in experiment [1] came out at 3231. Besides, the IC50 in experiment [2] amounted to 0.005 µM.

As for `Cc1cc2c(cnn2Cc2cccc3c2CC(N)CC3)cc1S(=O)(=O)Nc1cccc(F)n1` (centres unmarked) [Ex-61, 1-[(7-amino-5,6,7,8-tetrahydronaphthalen-1-yl)methyl]-N-(6-fluoropyridin-2-yl)-6-methyl-1H-indazole-5-sulfonamide], the “Ratio 1.5:1.7 = Nav 1.5 potency” value in experiment [1] worked out at 171. Further, in experiment [2], the IC50 is 0.061 µM.

Take `C[C@H](c1cccc2c1CNCC2)n1ncc2cc(S(=O)(=O)Nc3nccs3)c(F)cc21` [Ex-28, 6-fluoro-1-[(1R)-1-(1,2,3,4-tetrahydroisoquinolin-8-yl)ethyl]-N-1,3-thiazol-2-yl-1H-indazole-5-sulfonamide]: the “Ratio 1.5:1.7 = Nav 1.5 potency” value in experiment [1] was 870. Also, the IC50 in experiment [2] came out at 0.025 µM.

For the molecule `O=S(=O)(Nc1nccs1)c1cc2cnn(Cc3ccccc3C3=CCNCC3)c2cc1F` [Ex-30, 6-fluoro-1-[2-(1,2,3,6-tetrahydropyridin-4-yl)benzyl]-N-1,3-thiazol-2-yl-1H-indazole-5-sulfonamide], the “Ratio 1.5:1.7 = Nav 1.5 potency” value in experiment [1] is 326. Moreover, the IC50 in experiment [2] amounted to 0.082 µM.

Take `C[C@H](c1ccccc1CCCN)n1ncc2cc(S(=O)(=O)Nc3cccc(F)n3)c(F)cc21` [Ex-33, 1-{(1R)-1-[2-(3-amino-propyl)phenyl]ethyl}-6-fluoro-N-(6-fluoropyridin-2-yl)-1H-indazole-5-sulfonamide]: the “Ratio 1.5:1.7 = Nav 1.5 potency” value in experiment [1] is 228. In addition, the IC50 in experiment [2] stood at 0.381 µM.

`C[C@H](c1ccccc1C1CNC1)n1ncc2cc(S(=O)(=O)Nc3cccc(F)n3)c(F)cc21` [Ex-40, 1-[(1R)-1-(2-azetidin-3-ylphenyl)ethyl]-6-fluoro-N-(6-fluoropyridin-2-yl)-1H-indazole-5-sulfonamide]: the “Ratio 1.5:1.7 = Nav 1.5 potency” value in experiment [1] was determined as 11. The IC50 in experiment [2] is 0.775 µM.

As to `C[C@H](c1cccc2c1CNCC2)n1cc2cc(S(=O)(=O)Nc3ncc(Cl)s3)c(F)cc2n1` [Ex-55, N-(5-chloro-1,3-thiazol-2-yl)-6-fluoro-2-[(1R)-1-(1,2,3,4-tetrahydro-isoquinolin-8-yl)ethyl]-2H-indazole-5-sulfonamide], the “Ratio 1.5:1.7 = Nav 1.5 potency” value in experiment [1] is recorded as 152. Also, the IC50 in experiment [2] amounted to 0.111 µM.

Take `C[C@H](c1ccccc1C#C[C@@H]1CCCC[C@@H]1N)n1ncc2cc(S(=O)(=O)Nc3cccc(F)n3)c(F)cc21` [Ex-47, 1-[(1R)-1-(2-{[(1S,2S)-2-amino-cyclohexyl]ethynyl}phenyl)ethyl]-6-fluoro-N-(6-fluoropyridin-2-yl)-1H-indazole-5-sulfonamide]: the “Ratio 1.5:1.7 = Nav 1.5 potency” value in experiment [1] is reported as 15. Moreover, the IC50 in experiment [2] came to 0.546 µM.

On to `NCCCc1ccccc1Cn1ncc2cc(S(=O)(=O)Nc3nccs3)c(F)cc21` [Ex-27, 1-[2-(3-aminopropyl)benzyl]-6-fluoro-N-1,3-thiazol-2-yl-1H-indazole-5-sulfonamide], for which, in experiment [1], the “Ratio 1.5:1.7 = Nav 1.5 potency” value stood at 48. Moreover, the IC50 in experiment [2] was 0.005 µM.

For `NC1CCc2cccc(Cn3ncc4cc(S(=O)(=O)Nc5cccc(F)n5)c(F)cc43)c2C1` (single isomer, unassigned) [Ex-31, (R or S)-1-[(7-amino-5,6,7,8-tetrahydronaphthalen-1-yl)methyl]-6-fluoro-N-(6-fluoropyridin-2-yl)-1H-indazole-5-sulfonamide], in experiment [1], the “Ratio 1.5:1.7 = Nav 1.5 potency” value is 772. Moreover, the IC50 in experiment [2] amounted to 0.056 µM.

Regarding `CC(C)(N)CC#Cc1ccccc1Cn1ncc2cc(S(=O)(=O)Nc3cccc(F)n3)c(F)cc21` [Ex-45, 1-[2-(4-amino-4-methylpent-1-yn-1-yl)benzyl]-6-fluoro-N-(6-fluoropyridin-2-yl)-1H-indazole-5-sulfonamide], the “Ratio 1.5:1.7 = Nav 1.5 potency” value in experiment [1] was determined as 18. The IC50 in experiment [2] was found to be 2.04 µM.

Regarding `O=S(=O)(Nc1cccc(F)n1)c1cc2cnn(Cc3ccccc3I)c2cc1F` [Ex-41, 6-fluoro-N-(6-fluoropyridin-2-yl)-1-(2-iodobenzyl)-1H-indazole-5-sulfonamide], in experiment [1], the “Ratio 1.5:1.7 = Nav 1.5 potency” value is listed as 7. Moreover, in experiment [2], the IC50 was determined as 1.07 µM.
